In patent US11274083B2, “Substituted thiophenyl uracils, salts thereof and the use thereof as herbicidal agents” (Syngenta Crop Protection AG, priority 2017, dated 2022):

Tests used:
Format in all cases: in vivo
Amaranthus retroflexus [1] = assay: Herbicidal action post-emergence, greenhouse pot test
Outline: (§1)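 Sandy loam pots, greenhouse; one-leaf stage (2–3 wk post-sowing); WP/EC spray as aqueous suspension/emulsion + 0.5% additive, 600 L/ha; rate ≤80 g/ha; visual % efficacy vs untreated at ~3 wk.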

Lolium rigidum [2] = assay: as above
Outline: as §1

Matricaria inodora [3] = assay: as above
Outline: as §1

Stellaria media [4] = assay: as above
Outline: as §1

Alopecurus myosuroides [5] = assay: as above; conditions: scored visually after about 3 weeks vs untreated controls
Outline: as §1

Polygonum convolvulus [6] = assay: as above
Outline: as §1

Echinochloa crus-galli [7] = assay: as above
Outline: as §1

Veronica persica [8] = assay: as above
Outline: as §1

Abutilon theophrasti [9] = assay: as above
Outline: as §1

Setaria viridis [10] = assay: as above
Outline: as §1

Viola tricolor [11] = assay: as above
Outline: as §1

Pharbitis purpurea [12] = assay: as above
Outline: as §1

Triticum aestivum = assay: Crop compatibility post-emergence, greenhouse pot test
Outline: (§2)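 Greenhouse post-emergence spray at one-leaf stage, 600 L/ha with 0.5% additive. Injury was assessed visually after about 3 weeks as % of untreated control.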

Glycine max = assay: as above
Outline: as §2

Oryza sativa = assay: as above
Outline: as §2

Digitaria sanguinalis = assay: Herbicidal action post-emergence, greenhouse pot test; conditions: application rate 20 g/ha
Amaranthus retroflexus [13] = assay: Herbicidal action pre-emergence, greenhouse pot test; conditions: application rate 80 g/ha
Outline: (§3)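 Pre-emergence soil-surface spray, WP/EC formulations in water plus 0.5% additive, 600 L/ha spray volume; rate 320 g/ha or lower. Greenhouse ~3 wk. Visual % efficacy vs untreated (100% = plants dead, 0% = like control).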

Lolium rigidum [14] = assay: as above; conditions: application rate 320 g/ha
Outline: as §3

Stellaria media [15] = assay: as above; conditions: application rate 320 g/ha
Outline: as §3

Alopecurus myosuroides [16] = assay: as above; conditions: application rate 320 g/ha
Outline: as §3

Avena fatua [17] = assay: as above; conditions: application rate 320 g/ha
Outline: as §3

Polygonum convolvulus [18] = assay: as above; conditions: application rate 320 g/ha
Outline: as §3

Echinochloa crus-galli [19] = assay: as above; conditions: application rate 320 g/ha
Outline: as §3

Veronica persica [20] = assay: as above; conditions: application rate 320 g/ha
Outline: as §3

Abutilon theophrasti [21] = assay: as above; conditions: application rate 320 g/ha
Outline: as §3

Hordeum murinum = assay: as above; conditions: application rate 320 g/ha
Outline: as §3

Setaria viridis [22] = assay: as above; conditions: application rate 320 g/ha
Outline: as §3

Cyperus esculentus = assay: as above; conditions: application rate 320 g/ha
Outline: as §3

Viola tricolor [23] = assay: as above; conditions: application rate 320 g/ha
Outline: as §3

Pharbitis purpurea [24] = assay: as above; conditions: application rate 320 g/ha
Outline: as §3

Matricaria inodora [25] = assay: as above; conditions: application rate 320 g/ha
Avena fatua [26] = assay: Herbicidal action post-emergence, greenhouse pot test; conditions: application rate 80 g/ha
Outline: as §1

Zea mays = assay: Crop compatibility post-emergence, greenhouse pot test; conditions: application rate 80 g/ha
Outline: as §2

Row | Structure (SMILES) | Triticum aestivum (Efficacy in %) (Triticum aestivum; application rate 5 g/ha) | Glycine max (Efficacy in %) (Glycine max; application rate 5 g/ha) | Oryza sativa (Efficacy in %) (Oryza sativa; application rate 5 g/ha) | Amaranthus retroflexus (Efficacy in %) (Amaranthus retroflexus [1]; application rate 80 g/ha) | Lolium rigidum (Efficacy in %) (Lolium rigidum [2]; application rate 80 g/ha) | Matricaria inodora (Efficacy in %) (Matricaria inodora [3]; application rate 80 g/ha) | Stellaria media (Efficacy in %) (Stellaria media [4]; application rate 80 g/ha) | Polygonum convolvulus (Efficacy in %) (Polygonum convolvulus [6]; application rate 80 g/ha) | Echinochloa crus-galli (Efficacy in %) (Echinochloa crus-galli [7]; application rate 80 g/ha) | Veronica persica (Efficacy in %) (Veronica persica [8]; application rate 80 g/ha) | Abutilon theophrasti (Efficacy in %) (Abutilon theophrasti [9]; application rate 80 g/ha) | Setaria viridis (Efficacy in %) (Setaria viridis [10]; application rate 80 g/ha) | Viola tricolor (Efficacy in %) (Viola tricolor [11]; application rate 80 g/ha) | Pharbitis purpurea (Efficacy in %) (Pharbitis purpurea [12]; application rate 80 g/ha) | Amaranthus retroflexus (Efficacy in %) (Amaranthus retroflexus [13]) | Lolium rigidum (Efficacy in %) (Lolium rigidum [14]) | Stellaria media (Efficacy in %) (Stellaria media [15]) | Alopecurus myosuroides (Efficacy in %) (Alopecurus myosuroides [16]) | Avena fatua (Efficacy in %) (Avena fatua [17]) | Polygonum convolvulus (Efficacy in %) (Polygonum convolvulus [18]) | other results
1 | CNC(=O)CCOC(=O)C(C)Sc1cc(-n2c(=O)cc(C(F)(F)F)n(C)c2=O)c(F)cc1Cl (stereo not shown) [I.1-152] | 20% | 20% | 10% | – | – | – | – | – | – | – | – | – | – | – | – | – | – | – | – | – | Amaranthus retroflexus (Efficacy in %) (Amaranthus retroflexus [1]; application rate 20 g/ha): 100%; Lolium rigidum (Efficacy in %) (Lolium rigidum [2]; application rate 20 g/ha): 80%; Matricaria inodora (Efficacy in %) (Matricaria inodora [3]; application rate 20 g/ha): 100%; Stellaria media (Efficacy in %) (Stellaria media [4]; application rate 20 g/ha): 100%; Alopecurus myosuroides (Efficacy in %) (Alopecurus myosuroides [5]; application rate 20 g/ha): 80%; Polygonum convolvulus (Efficacy in %) (Polygonum convolvulus [6]; application rate 20 g/ha): 100%; Echinochloa crus-galli (Efficacy in %) (Echinochloa crus-galli [7]; application rate 20 g/ha): 100%; Veronica persica (Efficacy in %) (Veronica persica [8]; application rate 20 g/ha): 100%; Abutilon theophrasti (Efficacy in %) (Abutilon theophrasti [9]; application rate 20 g/ha): 100%; Setaria viridis (Efficacy in %) (Setaria viridis [10]; application rate 20 g/ha): 100%; Viola tricolor (Efficacy in %) (Viola tricolor [11]; application rate 20 g/ha): 100%; Pharbitis purpurea (Efficacy in %) (Pharbitis purpurea [12]; application rate 20 g/ha): 100%; Digitaria sanguinalis (Efficacy in %) (Digitaria sanguinalis): 100%
2 | CC(Sc1cc(-n2c(=O)cc(C(F)(F)F)n(C)c2=O)c(F)cc1Cl)C(=O)OCC(=O)N(C)C (stereo not shown) [I.1-241] | 10% | 10% | 10% | 100% | 90% | 100% | 100% | 100% | 100% | 100% | 100% | 100% | 100% | 100% | 100% | 100% | 100% | 100% | 100% | 100% | Echinochloa crus-galli (Efficacy in %) (Echinochloa crus-galli [19]): 100%; Veronica persica (Efficacy in %) (Veronica persica [20]): 100%; Abutilon theophrasti (Efficacy in %) (Abutilon theophrasti [21]): 100%; Hordeum murinum (Efficacy in %) (Hordeum murinum): 100%; Setaria viridis (Efficacy in %) (Setaria viridis [22]): 100%; Cyperus esculentus (Efficacy in %) (Cyperus esculentus): 100%; Viola tricolor (Efficacy in %) (Viola tricolor [23]): 100%; Pharbitis purpurea (Efficacy in %) (Pharbitis purpurea [24]): 100%; Matricaria inodora (Efficacy in %) (Matricaria inodora [25]): 100%
3 | CC(Sc1cc(-n2c(=O)cc(C(F)(F)F)n(C)c2=O)c(F)cc1Cl)C(=O)OCC1CCC(=O)N1 (stereo not shown) [I.1-255] | – | – | – | 100% | 100% | 100% | 100% | 100% | 100% | 100% | 100% | 100% | 100% | 100% | 100% | 100% | 100% | 90% | 90% | 100% | Alopecurus myosuroides (Efficacy in %) (Alopecurus myosuroides [5]; application rate 80 g/ha): 90%; Avena fatua (Efficacy in %) (Avena fatua [26]): 80%; Echinochloa crus-galli (Efficacy in %) (Echinochloa crus-galli [19]): 100%; Veronica persica (Efficacy in %) (Veronica persica [20]): 100%; Abutilon theophrasti (Efficacy in %) (Abutilon theophrasti [21]): 100%; Hordeum murinum (Efficacy in %) (Hordeum murinum): 100%; Setaria viridis (Efficacy in %) (Setaria viridis [22]): 100%; Viola tricolor (Efficacy in %) (Viola tricolor [23]): 100%; Pharbitis purpurea (Efficacy in %) (Pharbitis purpurea [24]): 100%; Triticum aestivum (Efficacy in %) (Triticum aestivum; application rate 20 g/ha): 10%; Glycine max (Efficacy in %) (Glycine max; application rate 20 g/ha): 20%; Zea mays (Efficacy in %) (Zea mays): 10%; Oryza sativa (Efficacy in %) (Oryza sativa; application rate 80 g/ha): 0%; Matricaria inodora (Efficacy in %) (Matricaria inodora [25]): 100%
